Assays:
[1] = target: T1, ATP-binding cassette sub-family C member 2 (Rattus norvegicus, UniProt Q63120); experiment: TP_TRANSPORTER: inhibition of Naf-GlcA uptake (Naf-GlcA: 0.1 uM) in bile canalicular membrane vesicles of Wistar rat; assay type: functional, cell membranes, Bile canalicular membrane vesicle
[2] = target: T1, ATP-binding cassette sub-family C member 2; experiment: TP_TRANSPORTER: uptake in bile canalicular membrane vesicles from Wistar/TR- rat; assay type: functional, cell membranes, Bile canalicular membrane vesicle

T1 sequence (Q63120 whole entry): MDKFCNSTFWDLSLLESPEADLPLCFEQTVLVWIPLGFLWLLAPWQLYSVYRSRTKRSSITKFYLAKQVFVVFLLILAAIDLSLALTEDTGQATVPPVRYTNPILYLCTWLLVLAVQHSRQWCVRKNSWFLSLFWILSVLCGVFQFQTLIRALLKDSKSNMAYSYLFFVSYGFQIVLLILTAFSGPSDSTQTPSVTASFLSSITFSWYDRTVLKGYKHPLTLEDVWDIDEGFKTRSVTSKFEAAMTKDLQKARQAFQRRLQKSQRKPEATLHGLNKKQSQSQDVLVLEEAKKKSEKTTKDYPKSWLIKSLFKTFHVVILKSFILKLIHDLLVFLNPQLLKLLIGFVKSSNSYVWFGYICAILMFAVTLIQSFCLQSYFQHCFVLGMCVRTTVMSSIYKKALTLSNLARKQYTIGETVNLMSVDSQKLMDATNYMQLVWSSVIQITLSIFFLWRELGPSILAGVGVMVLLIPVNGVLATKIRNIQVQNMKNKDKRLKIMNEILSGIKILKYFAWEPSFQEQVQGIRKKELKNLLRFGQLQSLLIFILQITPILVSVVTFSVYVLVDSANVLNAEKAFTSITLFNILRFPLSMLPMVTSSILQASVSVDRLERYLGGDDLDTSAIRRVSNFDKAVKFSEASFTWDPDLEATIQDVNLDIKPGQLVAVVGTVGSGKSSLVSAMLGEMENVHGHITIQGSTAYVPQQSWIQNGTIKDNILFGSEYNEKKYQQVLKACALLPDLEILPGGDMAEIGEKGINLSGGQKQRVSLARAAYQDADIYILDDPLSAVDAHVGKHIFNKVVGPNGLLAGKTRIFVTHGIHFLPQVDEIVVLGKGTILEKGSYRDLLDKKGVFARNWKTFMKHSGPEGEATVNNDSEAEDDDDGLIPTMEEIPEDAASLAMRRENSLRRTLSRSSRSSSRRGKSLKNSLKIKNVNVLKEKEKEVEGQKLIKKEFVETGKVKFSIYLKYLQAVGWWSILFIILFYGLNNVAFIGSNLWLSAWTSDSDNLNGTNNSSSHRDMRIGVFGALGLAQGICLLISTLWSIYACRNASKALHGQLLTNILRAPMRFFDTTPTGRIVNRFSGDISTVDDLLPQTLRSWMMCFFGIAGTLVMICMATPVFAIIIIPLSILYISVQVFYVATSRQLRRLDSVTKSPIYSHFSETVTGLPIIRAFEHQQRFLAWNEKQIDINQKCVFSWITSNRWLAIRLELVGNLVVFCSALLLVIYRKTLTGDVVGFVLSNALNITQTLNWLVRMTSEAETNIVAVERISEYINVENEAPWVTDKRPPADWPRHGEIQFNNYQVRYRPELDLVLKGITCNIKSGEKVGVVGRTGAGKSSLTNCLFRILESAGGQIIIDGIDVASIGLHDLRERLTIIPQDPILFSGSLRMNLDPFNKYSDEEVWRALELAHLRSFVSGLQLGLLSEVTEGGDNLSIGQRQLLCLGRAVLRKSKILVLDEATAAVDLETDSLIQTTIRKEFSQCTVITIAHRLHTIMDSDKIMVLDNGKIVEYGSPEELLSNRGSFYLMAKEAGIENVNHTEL

With `N[C@@H](CCC(=O)N[C@H](CSc1ccc([N+](=O)[O-])cc1[N+](=O)[O-])C(=O)NCC(=O)O)C(=O)O` the IC50 [1] was 12 µM.
Compound `CCCCC/C=C\C\C=C/C=C/C=C/[C@@H](SC[C@@H](NC(=O)CC[C@H](N)C(=O)O)C(=O)NCC(=O)O)[C@@H](O)CCCC(=O)O` [LEUKOTRIEN C4] has an IC50 [1] of 0.2 µM.
With `CC(C)(Oc1ccc(C2CCCc3ccccc32)cc1)C(=O)O[C@@H]1O[C@H](O)[C@@H](O)[C@H](O)[C@H]1O` (stereo partly drawn) [NAFENOPIN GLUCURONIDE] the Activity [2] was “substrate [+]”.

Source: ChEMBL document CHEMBL2074436, “Hepatobiliary elimination of the peroxisome proliferator nafenopin by conjugation and subsequent ATP-dependent transport across the canalicular membrane” (Biochem Pharmacol, 1994)
